# Measured values from BindingDB's records for doi:10.1016/s0960-894x(98)00132-2 (Green Cross Research Laboratories, 1999).
# Molecular target: Chymotrypsinogen A (Bos taurus) (UniProt P00766)
# Experiment: Compound was evaluated for inhibitory activity against Bovine Chymotrypsinogen
row,SMILES,Ki [µM]
1,"CC(C)(C)OC(=O)NC(CC(=O)O)C(=O)N1CCC[C@H]1C(=O)NC(Cc1ccccc1)C(=O)C(F)(F)C(=O)Nc1cccc(C(=O)O)c1 (stereo partly drawn) [3-(4-{[(S)-1-(2-tert-Butoxycarbonylamino-3-carboxy-propionyl)-pyrrolidine-2-carbonyl]-amino}-2,2-difluoro-3-oxo-5-phenyl-pentanoylamino)-benzoic acid]",> 100
2,"CC(C)(C)OC(=O)NC(CCC(=O)O)C(=O)N1CCC[C@H]1C(=O)NC(Cc1ccccc1)C(=O)C(F)(F)C(=O)Nc1cccc(C(=O)O)c1 (stereo partly drawn) [3-(4-{[(S)-1-(2-tert-Butoxycarbonylamino-4-carboxy-butyryl)-pyrrolidine-2-carbonyl]-amino}-2,2-difluoro-3-oxo-5-phenyl-pentanoylamino)-benzoic acid]",1.3
3,"CC(C)(C)OC(=O)NC(CCC(=O)O)C(=O)N1CCC[C@H]1C(=O)NC(Cc1ccccc1)C(=O)C(F)(F)C(=O)Nc1cc(C(=O)O)cs1 (stereo partly drawn) [5-(4-{[(S)-1-(2-tert-Butoxycarbonylamino-4-carboxy-butyryl)-pyrrolidine-2-carbonyl]-amino}-2,2-difluoro-3-oxo-5-phenyl-pentanoylamino)-thiophene-3-carboxylic acid]",> 100
4,"CC(C)(C)OC(=O)NC(CCC(=O)O)C(=O)N1CCC[C@H]1C(=O)NC(Cc1ccccc1)C(=O)C(F)(F)C(=O)Nc1cccc(S(N)(=O)=O)c1 (stereo partly drawn) [5-{(S)-2-[1-Benzyl-3,3-difluoro-2-oxo-3-(3-sulfamoyl-phenylcarbamoyl)-propylcarbamoyl]-pyrrolidin-1-yl}-4-tert-butoxycarbonylamino-5-oxo-pentanoic acid]",1.03
5,"CC(C)(C)OC(=O)NC(CCC(=O)O)C(=O)N1CCC[C@H]1C(=O)NC(Cc1ccccc1)C(=O)C(F)(F)C(=O)Nc1cccc(C(N)=O)c1 (stereo partly drawn) [5-{(S)-2-[1-Benzyl-3-(3-carbamoyl-phenylcarbamoyl)-3,3-difluoro-2-oxo-propylcarbamoyl]-pyrrolidin-1-yl}-4-tert-butoxycarbonylamino-5-oxo-pentanoic acid]",1.22
6,"CC(C)(C)OC(=O)NC(CCC(=O)O)C(=O)N1CCC[C@H]1C(=O)NC(Cc1ccccc1)C(=O)C(F)(F)C(=O)Nc1cccc(CC(=O)O)c1 (stereo partly drawn) [5-{(S)-2-[1-Benzyl-3-(3-carboxymethyl-phenylcarbamoyl)-3,3-difluoro-2-oxo-propylcarbamoyl]-pyrrolidin-1-yl}-4-tert-butoxycarbonylamino-5-oxo-pentanoic acid]",3.95
